In brackets after ≈: the same amount, converted by molar mass.
Conditions: not given

SMILES	solubility [mM]
O=C(OCCOc1ccc(Cl)cc1Cl)c1ccccc1	0.154 (≈ 48 µg/mL)
Cc1[nH]c(=O)n(C(C)C)c(=O)c1Br	8.7 (≈ 2150 µg/mL)
C=C1C[C@]23C[C@@]1(O)CC[C@H]2[C@@]12C=C[C@H](O)[C@@](C)(C(=O)O1)[C@H]2[C@@H]3C(=O)O	14.4 (≈ 5000 µg/mL)
O=C[C@@H]1C[C@@H]2[C@@H]3[C@H]1[C@@]1(Cl)C(Cl)(Cl)[C@]3(Cl)[C@@]3(Cl)[C@@H]2[C@]31Cl	6.3e-05 (≈ 0.024 µg/mL)

Same assay, conditions: 20 °C

SMILES	solubility [mM]
CC(Cl)(Cl)[N+](=O)[O-]	17.4 (≈ 2500 µg/mL)
CCCOC/C(=N\c1ccc(Cl)cc1C(F)(F)F)n1ccnc1	36.1 (≈ 12500 µg/mL)
Cc1cc(N(C)C)nc(Cl)n1	54.8 (≈ 9400 µg/mL)
Cc1ccc(NC(=O)N(C)C)cc1Cl	0.329 (≈ 70 µg/mL)
C=CCN(CC=C)C(=O)C(Cl)Cl	24 (≈ 5000 µg/mL)
CCOC(=O)Nc1cccc(OC(=O)Nc2ccccc2)c1	0.0233 (≈ 7 µg/mL)
CNC(=S)[S-].[Na+]	5590
COP(=S)(OC)SCC(=O)N(c1ccc(Cl)cc1)C(C)C	0.037 (≈ 13.6 µg/mL)
O=C1CCc2cccc3c2N1CC3	23.1 (≈ 4000 µg/mL)
C#CC(C)N(C(=O)CCl)c1ccccc1 (centres undefined)	2.26 (≈ 500 µg/mL)
CC(C)OP(=O)(OC(C)C)SCc1ccccc1	1.39 (≈ 400 µg/mL)
N#C/C(=N\OCC1OCCO1)c1ccccc1	0.0861 (≈ 20 µg/mL)
O=CNC(Nc1ccc(Cl)c(Cl)c1)C(Cl)(Cl)Cl (centres undefined)	0.476 (≈ 160 µg/mL)
CNC(=O)Oc1ccccc1C1OCCO1	26.9 (≈ 6000 µg/mL)
COP(=S)(OC)Oc1ccc(Sc2ccc(OP(=S)(OC)OC)cc2)cc1	0.000579 (≈ 0.27 µg/mL)
CN(C(=O)COc1nc2ccccc2s1)c1ccccc1	0.0134 (≈ 4 µg/mL)
CN(C)C(O)=Nc1ccc(-n2nc(C(C)(C)C)oc2=O)c(Cl)c1	0.0472 (≈ 16 µg/mL)
CCSCCSP(=O)(OC)OC	14.3 (≈ 3300 µg/mL)
CN(C)C(=O)SCCCCOc1ccccc1	0.118 (≈ 30 µg/mL)
CCC1COC(Cn2cncn2)(c2ccc(Cl)cc2Cl)O1 (centres undefined)	0.244 (≈ 80 µg/mL)
O=S1(=O)OCC2C(CO1)C1(Cl)C(Cl)=C(Cl)C2(Cl)C1(Cl)Cl (centres undefined)	0.00114 (≈ 0.48 µg/mL)
[Br-].[Br-].c1cc[n+]2c(c1)-c1cccc[n+]1CC2	2060
CCOC(=O)NCCOc1ccc(Oc2ccccc2)cc1	0.0199 (≈ 6 µg/mL)
CNC(=O)N(C)c1nnc(C(F)(F)F)s1	8.74 (≈ 2100 µg/mL)
C1CNCCN1.Cl.Cl	2580
O=[N+]([O-])c1ccc(O/N=C/c2cc(Br)c(O)c(Br)c2)c([N+](=O)[O-])c1	0.000217 (≈ 0.1 µg/mL)
O=C(O)Cc1c[nH]c2ccccc12	8.56 (≈ 1500 µg/mL)

Same assay, conditions: 22 °C

SMILES	solubility [mM]
CCSC(=O)N(CC)C1CCCCC1	0.395 (≈ 85 µg/mL)

Same assay, conditions: 23 °C

SMILES	solubility [mM]
COC(=O)C(C)N(C(=O)c1ccccc1)c1ccc(F)c(Cl)c1 (centres undefined)	0.0857 (≈ 28.8 µg/mL)

Same assay, conditions: 25 °C

SMILES	solubility [mM]
CC(C)=CCl	11 (≈ 1000 µg/mL)
CCN(CC)C(=O)CCl	571 (≈ 85500 µg/mL)
CCOC(=O)CN(C(=O)CCl)c1c(CC)cccc1CC	0.337 (≈ 105 µg/mL)
O=C(O)c1cc(Cl)c(Cl)cc1Cl	3.59 (≈ 810 µg/mL)
COC(=O)C1(O)c2ccccc2-c2ccc(Cl)cc21 (centres undefined)	0.0655 (≈ 18 µg/mL)
CNC(=O)Oc1c(C(C)(C)C)cc(C)cc1C(C)(C)C	0.0252 (≈ 7 µg/mL)
O=C(O)COc1nc(Cl)c(Cl)cc1Cl	1.72 (≈ 440 µg/mL)
Cc1nc(C)c(Cl)c(O)c1Cl	0.0521 (≈ 10 µg/mL)
CNP(=O)(OC)Oc1ccc(C(C)(C)C)cc1Cl (centres undefined)	0.686 (≈ 200 µg/mL)
COC(=O)C(C)Oc1ccc(Oc2ncc(C(F)(F)F)cc2Cl)cc1 (centres undefined)	0.0248 (≈ 9.3 µg/mL)
CCSC(=O)N(CC)CC	20.3 (≈ 3280 µg/mL)
FC(F)(F)c1nc2c(Cl)c(Cl)ccc2[nH]1	0.271 (≈ 69 µg/mL)
COP(=S)(OC)Oc1ccc([N+](=O)[O-])c(C)c1	0.137 (≈ 38 µg/mL)
C=C(CC(Cl)(Cl)Cl)c1ccccc1	0.0522 (≈ 12.3 µg/mL)
Cc1ccc(/N=C/N(C)/C=N/c2ccc(C)cc2C)c(C)c1	0.00341 (≈ 1 µg/mL)
O=C(O)COc1cc(Cl)cc(Cl)c1	4.35 (≈ 961 µg/mL)
CCCCc1c(C)nc(NCC)nc1OS(=O)(=O)N(C)C	0.0695 (≈ 22 µg/mL)
CCCCS/C(=N\c1cccnc1)SCc1ccc(C(C)(C)C)cc1	0.00268 (≈ 1 µg/mL)
CCOP(=S)(OCC)SCSP(=S)(OCC)OCC	0.0052 (≈ 2 µg/mL)
CC(O)COCc1c(Cl)ccc(Cl)c1Cl (centres undefined)	0.271 (≈ 73 µg/mL)
CN(C)C(=O)Nc1cc(C(C)(C)C)on1	3.74 (≈ 790 µg/mL)

Same assay, conditions: 26 °C

SMILES	solubility [mM]
CCNc1nc(OC)nc(N(CC)CC)n1	1 (≈ 226 µg/mL)

Same assay, conditions: 30 °C

SMILES	solubility [mM]
CN1C(=O)[C@]23CC4=CC=C[C@H](O)[C@H]4N2C(=O)[C@@]1(CO)SS3	0.214 (≈ 70 µg/mL)
CCC(C)N(C(=O)SCc1ccccc1)C(C)CC (centres undefined)	0.00895 (≈ 2.5 µg/mL)

Same assay, conditions: pH 3.0; 26 °C

SMILES	solubility [mM]
CCN(CC)c1nc(NC(C)C)nc(OC)n1	0.0129 (≈ 3.09 µg/mL)

Same assay, conditions: pH 7.0; 25 °C

SMILES	solubility [mM]
Cn1cc(-c2ccccc2)c(=O)c(-c2cccc(C(F)(F)F)c2)c1	0.0364 (≈ 12 µg/mL)

— the OPERA property sets (Mansouri et al. 2018)
